Holding throughout (assay type): functional, organism-based
For experiment [1], the species on record is Mus musculus. Briefly: Concentration required for 50% inhibition of superoxide reduction of nitroblue tetrazolium.
Experiment [2] is filed under the species Mus musculus. Kind of experiment: Rate of diffusion-controlled disproportionation of superoxide.
The species entered for experiment [3] is Mus musculus. Kind of experiment: Percent reactivity in disproportionating diffusion controlled disproportionation of superoxide.

In experiment [1], “bis(2-Hydroxy-3,5-diisopropyl-benzoic acid)copper(II)(bis(3,5-diisopropylsalicylato)copper(II))” yielded a Concentration of 2.9 µM. For the same substance, the Rate in experiment [2] amounted to 2e+09 M⁻¹ s⁻¹. The Reactivity in experiment [3] came out at 0.7%.

bis(2-Hydroxy-benzoic acid)copper(II) displayed a Concentration in experiment [1] of 4.6 µM. This substance yielded a Rate in experiment [2] of 1.6e+09 M⁻¹ s⁻¹. This substance yielded a Reactivity in experiment [3] of 0.65%.
